# Key:
# Adenosine receptor A1 = target: T1, Adenosine receptor A1 (Homo sapiens, UniProt P30542)
# T1 sequence (P30542 whole entry): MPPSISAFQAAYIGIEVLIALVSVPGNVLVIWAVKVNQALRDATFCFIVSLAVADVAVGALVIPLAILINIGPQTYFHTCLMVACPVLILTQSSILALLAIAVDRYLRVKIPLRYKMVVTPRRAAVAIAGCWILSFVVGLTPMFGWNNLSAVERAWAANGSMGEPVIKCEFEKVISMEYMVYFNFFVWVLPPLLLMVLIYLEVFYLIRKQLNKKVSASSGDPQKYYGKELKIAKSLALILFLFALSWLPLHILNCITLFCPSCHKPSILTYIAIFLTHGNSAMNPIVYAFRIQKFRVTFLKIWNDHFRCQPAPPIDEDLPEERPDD
# [1] = target: T2, Alpha-2C adrenergic receptor (Homo sapiens, UniProt P18825); format: functional
# T2 sequence (P18825 whole entry): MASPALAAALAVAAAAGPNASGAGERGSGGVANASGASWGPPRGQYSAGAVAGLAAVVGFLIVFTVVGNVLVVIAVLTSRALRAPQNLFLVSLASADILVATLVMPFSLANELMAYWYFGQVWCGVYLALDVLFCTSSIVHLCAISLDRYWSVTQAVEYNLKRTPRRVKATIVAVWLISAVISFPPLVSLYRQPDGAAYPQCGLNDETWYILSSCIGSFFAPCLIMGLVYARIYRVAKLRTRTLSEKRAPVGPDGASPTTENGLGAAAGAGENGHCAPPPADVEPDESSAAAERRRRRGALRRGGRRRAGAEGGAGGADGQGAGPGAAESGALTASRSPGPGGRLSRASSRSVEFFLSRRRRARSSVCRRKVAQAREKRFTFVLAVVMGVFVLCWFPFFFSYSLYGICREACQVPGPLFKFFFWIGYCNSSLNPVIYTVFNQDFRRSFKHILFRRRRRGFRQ
# [2] = target: Beta-1 adrenergic receptor (Homo sapiens, UniProt P08588); format: functional
# Vasopressin V2 receptor = Vasopressin V2 receptor (Homo sapiens, UniProt P30518)
# [3] = target: T3, 5-hydroxytryptamine receptor 2C (Homo sapiens, UniProt P28335)
# T3 sequence (P28335 whole entry): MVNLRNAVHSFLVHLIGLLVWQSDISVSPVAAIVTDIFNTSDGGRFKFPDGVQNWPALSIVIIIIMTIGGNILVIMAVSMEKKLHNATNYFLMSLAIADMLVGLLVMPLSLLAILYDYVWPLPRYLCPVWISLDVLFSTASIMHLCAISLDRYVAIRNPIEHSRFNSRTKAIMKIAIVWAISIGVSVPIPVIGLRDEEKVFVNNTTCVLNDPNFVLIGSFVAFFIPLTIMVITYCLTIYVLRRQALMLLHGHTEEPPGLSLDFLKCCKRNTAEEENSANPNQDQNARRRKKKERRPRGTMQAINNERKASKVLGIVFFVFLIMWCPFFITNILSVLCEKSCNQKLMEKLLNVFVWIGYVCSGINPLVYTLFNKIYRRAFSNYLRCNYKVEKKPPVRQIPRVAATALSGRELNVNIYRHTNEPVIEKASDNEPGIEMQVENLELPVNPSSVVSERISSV
# [4] = target: T4, 5-hydroxytryptamine receptor 3A (Homo sapiens, UniProt P46098); format: functional
# T4 sequence (P46098 whole entry): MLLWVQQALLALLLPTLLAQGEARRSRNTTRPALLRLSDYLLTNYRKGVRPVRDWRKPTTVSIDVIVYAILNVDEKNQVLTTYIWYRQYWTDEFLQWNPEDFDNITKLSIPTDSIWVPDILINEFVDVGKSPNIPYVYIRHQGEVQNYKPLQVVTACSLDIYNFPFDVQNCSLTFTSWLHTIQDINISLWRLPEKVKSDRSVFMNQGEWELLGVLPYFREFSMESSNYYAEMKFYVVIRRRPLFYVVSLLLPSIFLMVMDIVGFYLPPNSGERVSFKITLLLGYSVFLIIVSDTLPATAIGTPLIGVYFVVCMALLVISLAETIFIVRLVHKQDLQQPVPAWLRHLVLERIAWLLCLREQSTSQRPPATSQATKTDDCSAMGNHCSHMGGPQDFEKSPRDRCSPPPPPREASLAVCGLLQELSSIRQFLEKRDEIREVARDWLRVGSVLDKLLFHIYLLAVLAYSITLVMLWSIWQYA
# Motilin receptor = Motilin receptor (Homo sapiens, UniProt O43193)
# [5] = target: 3',5'-cyclic-AMP phosphodiesterase 4D (Homo sapiens, UniProt Q08499); format: functional
# Also: assay procedure not described here.
# Chain of Vasopressin V2 receptor (P30518 whole entry): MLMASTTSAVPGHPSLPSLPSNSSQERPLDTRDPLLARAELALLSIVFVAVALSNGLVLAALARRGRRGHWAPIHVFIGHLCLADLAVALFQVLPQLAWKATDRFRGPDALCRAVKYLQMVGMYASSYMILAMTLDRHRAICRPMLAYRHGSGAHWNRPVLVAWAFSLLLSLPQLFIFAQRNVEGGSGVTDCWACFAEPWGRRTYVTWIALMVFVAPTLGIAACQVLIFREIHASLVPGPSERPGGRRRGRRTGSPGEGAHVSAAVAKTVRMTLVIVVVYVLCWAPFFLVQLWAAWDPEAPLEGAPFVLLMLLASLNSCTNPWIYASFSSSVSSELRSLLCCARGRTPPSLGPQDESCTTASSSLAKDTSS
# Chain of 3',5'-cyclic-AMP phosphodiesterase 4D (Q08499 whole entry): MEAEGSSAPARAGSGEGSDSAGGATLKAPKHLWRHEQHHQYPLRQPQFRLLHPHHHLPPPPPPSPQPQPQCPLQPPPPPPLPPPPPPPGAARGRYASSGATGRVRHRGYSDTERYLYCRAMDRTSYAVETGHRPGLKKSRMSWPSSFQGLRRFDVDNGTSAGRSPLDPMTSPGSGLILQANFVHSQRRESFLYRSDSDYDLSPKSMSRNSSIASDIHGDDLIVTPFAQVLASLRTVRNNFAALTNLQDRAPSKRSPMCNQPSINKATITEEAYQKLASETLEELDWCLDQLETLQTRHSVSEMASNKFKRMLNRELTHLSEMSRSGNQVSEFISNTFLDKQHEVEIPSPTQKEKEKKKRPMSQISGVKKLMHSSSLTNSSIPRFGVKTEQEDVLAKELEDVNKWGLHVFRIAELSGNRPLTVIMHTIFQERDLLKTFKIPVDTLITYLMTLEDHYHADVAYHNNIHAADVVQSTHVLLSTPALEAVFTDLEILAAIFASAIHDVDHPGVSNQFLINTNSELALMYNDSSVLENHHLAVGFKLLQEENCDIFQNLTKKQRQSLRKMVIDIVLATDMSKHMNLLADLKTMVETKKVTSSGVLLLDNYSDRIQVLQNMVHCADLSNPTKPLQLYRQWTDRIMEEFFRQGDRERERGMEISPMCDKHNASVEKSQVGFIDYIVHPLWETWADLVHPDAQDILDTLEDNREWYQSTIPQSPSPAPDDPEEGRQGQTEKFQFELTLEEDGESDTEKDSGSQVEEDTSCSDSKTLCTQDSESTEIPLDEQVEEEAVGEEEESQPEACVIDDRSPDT
# Chain of Motilin receptor (O43193 whole entry): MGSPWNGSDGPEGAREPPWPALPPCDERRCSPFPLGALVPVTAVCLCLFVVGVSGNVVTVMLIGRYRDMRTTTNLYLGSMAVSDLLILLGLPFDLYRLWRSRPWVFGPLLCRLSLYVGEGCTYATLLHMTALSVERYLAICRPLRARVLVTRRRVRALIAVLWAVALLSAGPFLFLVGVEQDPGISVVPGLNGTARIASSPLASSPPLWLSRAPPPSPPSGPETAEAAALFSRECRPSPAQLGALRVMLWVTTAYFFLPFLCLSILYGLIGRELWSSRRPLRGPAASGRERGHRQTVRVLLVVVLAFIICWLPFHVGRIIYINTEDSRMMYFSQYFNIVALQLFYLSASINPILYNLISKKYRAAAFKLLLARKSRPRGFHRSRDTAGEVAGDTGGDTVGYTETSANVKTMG
# Chain of Beta-1 adrenergic receptor (P08588 whole entry): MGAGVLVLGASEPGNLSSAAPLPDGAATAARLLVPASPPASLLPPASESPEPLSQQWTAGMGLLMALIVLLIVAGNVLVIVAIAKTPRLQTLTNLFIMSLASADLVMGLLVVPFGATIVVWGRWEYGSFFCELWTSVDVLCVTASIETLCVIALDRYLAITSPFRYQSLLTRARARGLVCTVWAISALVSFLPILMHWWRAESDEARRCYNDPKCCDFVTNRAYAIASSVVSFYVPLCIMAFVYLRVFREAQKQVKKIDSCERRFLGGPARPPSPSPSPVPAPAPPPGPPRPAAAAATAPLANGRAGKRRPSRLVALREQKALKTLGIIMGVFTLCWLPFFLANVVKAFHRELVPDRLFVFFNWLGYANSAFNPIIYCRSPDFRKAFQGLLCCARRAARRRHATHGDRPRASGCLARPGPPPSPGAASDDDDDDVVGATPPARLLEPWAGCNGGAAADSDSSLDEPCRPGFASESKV
SMILES,AC50 (Adenosine receptor A1) [µM],AC50 [1] [µM],AC50 [2] [µM],AC50 (Vasopressin V2 receptor) [µM],AC50 [3] [µM],AC50 [4] [µM],AC50 (Motilin receptor) [µM],AC50 [5] [µM]
C[C@]12CC[C@H](O)CC1=CC[C@@H]1[C@@H]2CC[C@]2(C)C(c3cccnc3)=CC[C@@H]12 [ABIRATERONE],> 30,> 10,> 30,> 30,> 30,> 30,> 10,> 30
CC(=O)OCC[N+](C)(C)C [ACETYLCHOLINE],> 30,> 10,> 30,> 30,> 30,> 10,> 30,> 30
CN(C)C(=O)Oc1cc(OC(=O)N(C)C)cc(C(O)CNC(C)(C)C)c1 (configuration not stated) [BAMBUTEROL],> 30,–,> 30,> 30,–,–,> 30,–
C[C@H]1C[C@H]2[C@@H]3CCC4=CC(=O)C=C[C@]4(C)[C@@]3(Cl)[C@@H](O)C[C@]2(C)[C@@]1(O)C(=O)CO [BECLOMETHASONE],> 30,> 10,> 10,> 30,> 30,> 30,> 10,> 30
CO[C@@]1(NC(=O)CSCC#N)C(=O)N2C(C(=O)O)=C(CSc3nnnn3C)CS[C@@H]21 [CEFMETAZOLE],–,> 30,–,–,–,> 30,–,> 30
CO/N=C(\C(=O)N[C@@H]1C(=O)N2C(C(=O)[O-])=C(C[n+]3cccc4c3CCC4)CS[C@H]12)c1csc(N)n1 [CEFPIROME],–,> 30,–,–,> 30,> 30,–,> 30
NS(=O)(=O)c1cc(C2(O)NC(=O)c3ccccc32)ccc1Cl (configuration not stated) [CHLORTHALIDONE],> 10,> 10,> 10,> 10,> 30,> 30,> 10,> 30
CC[C@H]1OC(=O)[C@H](C)[C@@H](O[C@H]2C[C@@](C)(OC)[C@@H](O)[C@H](C)O2)[C@H](C)[C@@H](O[C@@H]2O[C@H](C)C[C@H](N(C)C)[C@H]2O)[C@](C)(OC)C[C@@H](C)C(=O)[C@H](C)[C@@H](O)[C@]1(C)O [CLARITHROMYCIN],> 30,> 30,> 30,> 30,–,–,> 30,> 30
C[C@@H]1CCC[C@H](C)N1NC(=O)c1ccc(Cl)c(S(N)(=O)=O)c1 [CLOPAMIDE],> 30,> 30,> 30,> 30,> 30,> 30,> 30,> 30
COc1ccc2c(c1)[C@]13CCCC[C@@H]1[C@H](C2)N(C)CC3 [DEXTROMETHORPHAN],> 30,11,> 10,> 30,> 30,> 10,> 10,> 30
O=c1oc2ccccc2c(O)c1Cc1c(O)c2ccccc2oc1=O [DICUMAROL],> 10,> 10,> 10,> 10,> 30,> 30,> 10,6.3
CCn1cc(C(=O)O)c(=O)c2cc(F)c(N3CCNCC3)nc21 [ENOXACIN],> 30,> 10,> 10,> 30,> 10,> 10,> 10,> 10
O=C(O)CSCC(=O)NC1CCSC1=O (configuration not stated) [ERDOSTEINE],> 30,> 30,> 30,> 30,> 30,> 30,> 30,> 30
COc1cccc(N(C)C(=S)Oc2ccc3c(c2)CCCC3)n1 [LIRANAFTATE],> 30,> 30,> 30,> 30,> 30,> 30,> 30,> 30
C#C[C@]1(O)CC[C@H]2[C@@H]3CCc4cc(OC)ccc4[C@H]3CC[C@@]21C [MESTRANOL],> 30,> 30,> 10,> 10,> 30,> 30,> 10,> 30
N=C(N)c1ccc2cc(OC(=O)c3ccc(N=C(N)N)cc3)ccc2c1 [NAFAMOSTAT],> 30,3.2,> 30,> 30,> 30,14,27,> 30
CNC(=O)Oc1ccc2c(c1)[C@]1(C)CCN(C)[C@@H]1N2C [PHYSOSTIGMINE],> 30,> 30,> 30,> 30,> 30,> 30,> 30,> 30
O=C(O)c1cc(O)c2c3nc4ccccc4oc-3cc(=O)c2n1 [PIRENOXINE],> 30,2.7,> 30,> 30,2.3,2.6,> 30,> 30
NS(=O)(=O)c1cc(C(=O)O)cc(N2CCCC2)c1Oc1ccccc1 [PIRETANIDE],> 30,> 30,> 30,> 30,> 30,> 30,> 30,> 30
CNCCCC1c2ccccc2C=Cc2ccccc21 [PROTRIPTYLINE],> 10,–,–,> 10,–,> 30,> 10,> 30
COCCCOc1ccnc(C[S+]([O-])c2nc3ccccc3[nH]2)c1C (configuration not stated) [RABEPRAZOLE],22.5,> 10,> 10,> 30,> 30,6,> 10,8
CC(C)=CCOc1ccc(/C=C/C(=O)c2ccc(OCC=C(C)C)cc2OCC(=O)O)cc1 [SOFALCONE],> 30,> 30,21,> 30,> 30,> 30,> 30,> 30
O=C(CCCN1CCC2(CC1)C(=O)NCN2c1ccccc1)c1ccc(F)cc1 [SPIPERONE],> 30,0.369,2.8,> 30,10.3,> 30,> 30,> 30
CCSc1ccc2c(c1)N(CCCN1CCN(C)CC1)c1ccccc1S2 [THIETHYLPERAZINE],–,2.2,> 30,–,–,–,–,16
CN(C)c1cc(NC(=O)CNC(C)(C)C)c(O)c2c1C[C@H]1C[C@H]3[C@H](N(C)C)C(O)=C(C(N)=O)C(=O)[C@@]3(O)C(O)=C1C2=O [TIGECYCLINE],> 30,> 30,> 30,> 30,> 30,> 30,> 30,> 30

# Source: ChEMBL document CHEMBL5291721, “A preclinical secondary pharmacology resource illuminates target-adverse drug reaction associations of marketed drugs” (Nat Commun, 2023)
